Measured values from patent US20130165368A1, “ANTIMICROBIAL COMPOUNDS” (priority 2010, published 2013).
Values after ≈ are worked out from the molar mass of the structure shown. Where two headings read alike, the source gives them in different places.

Legend:
Type in all cases: cell-based
[1] = system: Staphylococcus epidermidis; experiment: MIC agar dilution, micro-organism 14 (11047); conditions: Staphylococcus epidermidis 11047, read-out: MIC
In short: (§1)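 Agar dilution in Isosensitest/CCEY agar with egg yolk and lysed horse blood; compounds as aqueous emulsions (myristyl and lauryl alcohol with 1-methyl-2-pyrrolidone and Tween 20). 1 µL spots of 1/15-diluted 0.5 McFarland suspensions, 37 °C aerobic, read at 22 and 48 h; MIC (mmol/L) is lowest concentration giving <10 colonies.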

Escherichia coli = experiment: MIC agar dilution, micro-organism 1 (10418); conditions: Escherichia coli 10418, read-out: MIC
In short: as §1

[2] = system: MRSA GER 1966/97 (Hanover IIIc); experiment: MIC agar dilution, MRSA strain 36; conditions: Staphylococcus aureus
Procedure: (§2) Molar equivalent concentrations were used to allow comparison between compounds of differing molecular mass. Due to weighing difficulties, any compound in solid form was melted in a water bath prior to dilution. To make ten-times strength concentrations, which takes into account agar dilution, 0.0352 mmol of each compound was weighed into plastic universal bottles and 4 mL of sterile distilled water (SDW) was added. To produce a homogenous emulsion the universals were vortexed; once achieved the emulsions were serial diluted by adding 2 mL to 2 mL of SDW.
(§3) For every 100 mL of Isosensitest agar (IST) (CM0471; Oxoid, Basingstoke, England), 3.1 g of the IST powder was added to 100 mL SDW (as per manufacturer's instructions) and sterilised for 15 minutes at 121° C. Once sterilised, the molten agar was cooled to 50° C. in a water-bath. Subsequently 4.8 g of CCEY powder (BC2160; Bioconnections, Wetherby, England), also known as Brazier's medium, was added to 100 mL SDW for every 100 mL of agar needed. This was then sterilised for 15 minutes at 121° C. Once sterilised the molten agar was cooled to 50° C. in a water-bath and 4 mL of egg-yolk emulsion (S2073; TCS Biosciences Ltd, Buckingham, United Kingdom) and 1 mL of lysed defibrinated horse blood (HB035; TCS Biosciences Ltd, Buckingham, United Kingdom) were also added for every 100 mL needed. Horse blood lysis is achieved by dilution to half concentration with SDW; when fully lysed the mixture will turn dark red in colour.
(§4) 18 mL agar was added to each universal and then poured into sterile Petri dishes. This step creates a 1/10 dilution resulting in agar plates of the required strength. Control plates for each set of strains were created by adding 18 mL of agar to 2 mL of SDW.
(§5) Suspensions of each bacterial species were prepared with a density equal to that of a 0.5 McFarland standard using a densitometer. All suspensions were made using sterile distilled water and fresh 18-20 hour cultures. As a 0.5 McFarland standard contains 1.5×10^8 CFU/mL and the multipoint inoculators applies 1 μL spots of liquid, each bacterial suspension was diluted 1/15 (20 μL suspension to 280 μL sterile distilled water).
(§6) Bacterial suspensions were prepared from fresh 18-24 hour cultures as previously described. 1 μL of each strain was inoculated onto all 100 agar plates containing a different chemical concentration and the 2 control plates. This was done using a multipoint inoculator which inoculates 20 strains per plate. All plates were incubated for 22 hours at 37° C. in aerobic conditions.
(§7) Each plate was examined for bacterial growth after 22 and 48 hours, with each being incubated in between examinations. A positive result was recorded as growth of ≧10 colonies. A negative result was recorded as growth of <10 colonies as this is equivalent to 99.9% inhibition. The lowest concentration of chemical that inhibited growth was recorded as the MIC. The results are recorded in Table IV below, where the numbers are quoted in mmol/L.
(§8) Given the positive performance of the ethoxylates of lauryl alcohol in reducing the MIC for a number of the micro-organisms tested, further MIC testing of Laureth-1 [C12E1] through to Laureth-8 [C12E8] was conducted on each of the following: • 10 strains of vancomycin-resistant enterococci (VRE)—listed in Table V below; and • 20 strains of methicillin-resistant Staphylococcus aureus (MRSA)—listed in Table VI.
(§9) The alkanol, alkanol derivatives, agar plates, and inocula were all prepared in the same way as described above.
(§10) The plates were examined in the same manner as described above and the results are recorded in Table VII below, where the numbers are quoted in mmol/L.

MRSA BEL 97597 = experiment: MIC agar dilution, MRSA strain 33; conditions: Staphylococcus aureus
Procedure: as §2, §3, §4, §5, §6, §7, §8, §9, §10

[3] = system: Enterococcus casseliflavus (VRE) Clin waste; experiment: MIC agar dilution, VRE strain 23
Procedure: as §2, §3, §4, §5, §6, §7, §8, §9, §10

Enterococcus faecium = experiment: MIC agar dilution, micro-organism 16 (7171); conditions: Enterococcus faecium 7171, read-out: MIC
In short: as §1

[4] = system: Enterococcus faecium (VRE) NCTC 12952; experiment: MIC agar dilution, VRE strain 30
Procedure: as §2, §3, §4, §5, §6, §7, §8, §9, §10

MRSA FRA 95035 = experiment: MIC agar dilution, MRSA strain 37; conditions: Staphylococcus aureus
Procedure: as §2, §3, §4, §5, §6, §7, §8, §9, §10

Providencia rettgeri = experiment: MIC agar dilution, micro-organism 3 (7475); conditions: Providencia rettgeri 7475, read-out: MIC
In short: as §1

MRSA FRA 920 = experiment: MIC agar dilution, MRSA strain 38; conditions: Staphylococcus aureus
Procedure: as §2, §3, §4, §5, §6, §7, §8, §9, §10

MRSA BEL 97598 = experiment: MIC agar dilution, MRSA strain 34; conditions: Staphylococcus aureus
Procedure: as §2, §3, §4, §5, §6, §7, §8, §9, §10

Steptococcus pyogenes = experiment: MIC agar dilution, micro-organism 11 (8306); conditions: Steptococcus pyogenes 8306, read-out: MIC
In short: as §1

[5] = system: Enterococcus faecalis (VRE) PHLS URINE 2000; experiment: MIC agar dilution, VRE strain 21
Procedure: as §2, §3, §4, §5, §6, §7, §8, §9, §10

Compound: CCCCCCCCCCCCOCCOCCOCCOCCOCCO [L5, Pentaethylene Glycol Monododecyl Ether]
- MIC ([1]; 22 hrs): 110 µM (≈ 44.7 µg/mL)
- MIC ([1]; 48 hrs): 110 µM (≈ 44.7 µg/mL)
- MIC (Escherichia coli; 22 hrs): > 880 µM
- MIC (Escherichia coli; 48 hrs): > 880 µM
- MIC ([2]; 22 hrs): 110 µM (≈ 44.7 µg/mL)
- MIC ([2]; 48 hrs): 110 µM (≈ 44.7 µg/mL)
- MIC (MRSA BEL 97597; 22 hrs): 110 µM (≈ 44.7 µg/mL)
- MIC (MRSA BEL 97597; 48 hrs): 110 µM (≈ 44.7 µg/mL)
- MIC ([3]; 22 hrs): 110 µM (≈ 44.7 µg/mL)
- MIC ([3]; 48 hrs): 110 µM (≈ 44.7 µg/mL)
- MIC (Enterococcus faecium; 22 hrs): 220 µM (≈ 89.5 µg/mL)
- MIC (Enterococcus faecium; 48 hrs): 220 µM (≈ 89.5 µg/mL)
- MIC ([4]; 22 hrs): 220 µM (≈ 89.5 µg/mL)
- MIC ([4]; 48 hrs): 220 µM (≈ 89.5 µg/mL)
- MIC (MRSA FRA 95035; 22 hrs): 110 µM (≈ 44.7 µg/mL)
- MIC (MRSA FRA 95035; 48 hrs): 110 µM (≈ 44.7 µg/mL)
- MIC (Providencia rettgeri; 22 hrs): > 880 µM
- MIC (Providencia rettgeri; 48 hrs): > 880 µM
- MIC (MRSA FRA 920; 22 hrs): 110 µM (≈ 44.7 µg/mL)
- MIC (MRSA FRA 920; 48 hrs): 110 µM (≈ 44.7 µg/mL)
- MIC (MRSA BEL 97598; 22 hrs): 110 µM (≈ 44.7 µg/mL)
- MIC (MRSA BEL 97598; 48 hrs): 110 µM (≈ 44.7 µg/mL)
- MIC (Steptococcus pyogenes; 22 h, 22 hrs): ≤ 50 µM
- MIC (Steptococcus pyogenes; 48 h, 48 hrs): ≤ 50 µM
- MIC ([5]; 22 hrs): 110 µM (≈ 44.7 µg/mL)
- MIC ([5]; 48 hrs): 110 µM (≈ 44.7 µg/mL)

Compound: CCCCCCCCCCCCOCCOCCOCCOCCOCCOCCO [L6, Hexaethylene Glycol Monododecyl Ether]
- MIC ([1]; 22 hrs): 110 µM (≈ 49.6 µg/mL)
- MIC ([1]; 48 hrs): 110 µM (≈ 49.6 µg/mL)
- MIC (Escherichia coli; 22 hrs): > 880 µM
- MIC (Escherichia coli; 48 hrs): > 880 µM
- MIC ([2]; 22 hrs): 110 µM (≈ 49.6 µg/mL)
- MIC ([2]; 48 hrs): 110 µM (≈ 49.6 µg/mL)
- MIC (MRSA BEL 97597; 22 hrs): 110 µM (≈ 49.6 µg/mL)
- MIC (MRSA BEL 97597; 48 hrs): 110 µM (≈ 49.6 µg/mL)
- MIC ([3]; 22 hrs): 220 µM (≈ 99.1 µg/mL)
- MIC ([3]; 48 hrs): 220 µM (≈ 99.1 µg/mL)
- MIC (Enterococcus faecium; 22 hrs): 440 µM (≈ 198 µg/mL)
- MIC (Enterococcus faecium; 48 hrs): 220 µM (≈ 99.1 µg/mL)
- MIC ([4]; 22 hrs): > 880 µM
- MIC ([4]; 48 hrs): > 880 µM
- MIC (MRSA FRA 95035; 22 hrs): 220 µM (≈ 99.1 µg/mL)
- MIC (MRSA FRA 95035; 48 hrs): 440 µM (≈ 198 µg/mL)
- MIC (Providencia rettgeri; 22 hrs): > 880 µM
- MIC (Providencia rettgeri; 48 hrs): > 880 µM
- MIC (MRSA FRA 920; 22 hrs): 220 µM (≈ 99.1 µg/mL)
- MIC (MRSA FRA 920; 48 hrs): 220 µM (≈ 99.1 µg/mL)
- MIC (MRSA BEL 97598; 22 hrs): 220 µM (≈ 99.1 µg/mL)
- MIC (MRSA BEL 97598; 48 hrs): 220 µM (≈ 99.1 µg/mL)
- MIC (Steptococcus pyogenes; 22 h, 22 hrs): ≤ 50 µM
- MIC (Steptococcus pyogenes; 48 h, 48 hrs): ≤ 50 µM
- MIC ([5]; 22 hrs): 220 µM (≈ 99.1 µg/mL)
- MIC ([5]; 48 hrs): 220 µM (≈ 99.1 µg/mL)

Compound: CCCCCCCCCCCCOCCOCCOCCOCCOCCOCCOCCO [L7, Heptaethylene Glycol Monododecyl Ether]
- MIC ([1]; 22 hrs): 110 µM (≈ 54.4 µg/mL)
- MIC ([1]; 48 hrs): 110 µM (≈ 54.4 µg/mL)
- MIC (Escherichia coli; 22 hrs): > 880 µM
- MIC (Escherichia coli; 48 hrs): > 880 µM
- MIC ([2]; 22 hrs): 110 µM (≈ 54.4 µg/mL)
- MIC ([2]; 48 hrs): 110 µM (≈ 54.4 µg/mL)
- MIC (MRSA BEL 97597; 22 hrs): 220 µM (≈ 109 µg/mL)
- MIC (MRSA BEL 97597; 48 hrs): 220 µM (≈ 109 µg/mL)
- MIC ([3]; 22 hrs): 220 µM (≈ 109 µg/mL)
- MIC ([3]; 48 hrs): 220 µM (≈ 109 µg/mL)
- MIC (Enterococcus faecium; 22 hrs): > 880 µM
- MIC (Enterococcus faecium; 48 hrs): > 880 µM
- MIC ([4]; 22 hrs): > 880 µM
- MIC ([4]; 48 hrs): > 880 µM
- MIC (MRSA FRA 95035; 22 hrs): > 440 µM
- MIC (MRSA FRA 95035; 48 hrs): > 440 µM
- MIC (Providencia rettgeri; 22 hrs): > 880 µM
- MIC (Providencia rettgeri; 48 hrs): > 880 µM
- MIC (MRSA FRA 920; 22 hrs): 220 µM (≈ 109 µg/mL)
- MIC (MRSA FRA 920; 48 hrs): 440 µM (≈ 218 µg/mL)
- MIC (MRSA BEL 97598; 22 hrs): > 440 µM
- MIC (MRSA BEL 97598; 48 hrs): > 440 µM
- MIC (Steptococcus pyogenes; 22 hrs): 110 µM (≈ 54.4 µg/mL)
- MIC (Steptococcus pyogenes; 48 hrs): 110 µM (≈ 54.4 µg/mL)
- MIC ([5]; 22 hrs): 440 µM (≈ 218 µg/mL)
- MIC ([5]; 48 hrs): 880 µM (≈ 435 µg/mL)
